Source: patent US9409876B2, “Bradykinin receptor antagonists and pharmaceutical compositions containing them” (DOMPE' FARMACEUTICI S.P.A., priority 2013, dated 2016)
Where two headings read alike, the source gives them in different places.

Experiment: Pharmacokinetics after IV administration, brain penetration assessment
Assay type: in vivo, rat
Details: for concentration at 60 min / concentration at 240 min / concentration at 15 min: iv, 7.5 mg/kg
Description: In three of the rats tested in Example 56, indicated as R1, […], also the pharmacokinetic profile of compound 8 (R,R) was evaluated. The results are summarised in Tables III to IV and in FIGS. 1-4.
In tables III and V, T1/2 means the half-time of the compound, Tmax means the time at which the concentration of the compound reaches the maximum level, Cmax means the maximal concentration, Tlast means the latest time-point at which the concentration of the compound can be measured, Clast means the concentration at the latest time-point at which the concentration of the compound can be measured, AUClast means the area under the curve at the latest time-point at which the concentration of the compound can be measured, AUCinf_obs means the area under the curve which is infinitely extrapolated and MRTlast means the mean residence time at the latest time-point at which the concentration of the compound can be measured.
In tables IV and VI, LLOQ means lower limit of quantification.
Brain penetration was performed by IV administration at 7.5 mg/kg.

[1] = IV 7.5 mg/kg, Time 480, Average
[2] = Sprague-Dawley (SD), rat, IV 7.5 mg/kg, Brain
[3] = Sprague-Dawley (SD), rat, IV 7.5 mg/kg, Plasma
[4] = Sprague-Dawley, rat, IV 7.5 mg/kg, Brain

Tlast (IV 7.5 mg/kg, Brain): 60 min
Tlast (IV 7.5 mg/kg, Plasma): 240 min
Brain level (IV 7.5 mg/kg, Time 15, Average): 635.1 ng/g
Brain level (IV 7.5 mg/kg, Time 15, R1): 619.3 ng/g
Brain level (IV 7.5 mg/kg, Time 15, R2): 446.05 ng/g
Brain level (IV 7.5 mg/kg, Time 15, R3): 839.85 ng/g
Brain level (IV 7.5 mg/kg, Time 240, Average): <LLOQ
Brain level (IV 7.5 mg/kg, Time 240, R1): <LLOQ
Brain level (IV 7.5 mg/kg, Time 240, R2): <LLOQ
Brain level (IV 7.5 mg/kg, Time 240, R3): <LLOQ
Brain level [1]: <LLOQ
plasma level [1]: <LLOQ
Brain level (IV 7.5 mg/kg, Time 480, R1): <LLOQ
plasma level (IV 7.5 mg/kg, Time 480, R1): <LLOQ
Brain level (IV 7.5 mg/kg, Time 480, R2): <LLOQ
plasma level (IV 7.5 mg/kg, Time 480, R2): <LLOQ
Brain level (IV 7.5 mg/kg, Time 480, R3): <LLOQ
plasma level (IV 7.5 mg/kg, Time 480, R3): <LLOQ
concentration at 60 min (Sprague-Dawley (SD), rat, brain, Brain, read-out: Clast): 48.8 ng/mL
concentration at 240 min (Sprague-Dawley (SD), rat, plasma, Plasma, read-out: Clast): 4.2 ng/mL
AUC(0-t) [2]: 523 ng·h/mL
MRT last [2]: 11.2 min
AUC(0-t) [3]: 1200 ng·h/mL
MRT last [3]: 15.9 min
Tmax [3]: 15 min
half-life (Sprague-Dawley (SD), rat, IV 7.5 mg/kg, Plasma, read-out: T½): 12.5 min
concentration at 60 min (Sprague-Dawley, rat, brain, Time 60, Average, read-out: Brain level): 48.8 ng/g
concentration at 60 min (Sprague-Dawley, rat, brain, Time 60, R1, read-out: Brain level): 62.1 ng/g
concentration at 60 min (Sprague-Dawley, rat, brain, Time 60, R2, read-out: Brain level): 34.6 ng/g
concentration at 60 min (Sprague-Dawley, rat, brain, Time 60, R3, read-out: Brain level): 49.5 ng/g
Kp (Sprague-Dawley, rat, brain, IV 7.5 mg/kg, average on the AUC ratio): ~0.43
concentration at 15 min (Sprague-Dawley, rat, plasma, Time 15, Average, read-out: Plasma level): 1400 ng/mL
concentration at 15 min (Sprague-Dawley, rat, plasma, Time 15, R1, read-out: Plasma level): 1600 ng/mL
concentration at 15 min (Sprague-Dawley, rat, plasma, Time 15, R2, read-out: Plasma level): 1140 ng/mL
concentration at 15 min (Sprague-Dawley, rat, plasma, Time 15, R3, read-out: Plasma level): 1470 ng/mL
concentration at 60 min (Sprague-Dawley, rat, plasma, Time 60, Average, read-out: Plasma level): 162 ng/mL
concentration at 60 min (Sprague-Dawley, rat, plasma, Time 60, R1, read-out: Plasma level): 123 ng/mL
concentration at 60 min (Sprague-Dawley, rat, plasma, Time 60, R2, read-out: Plasma level): 157 ng/mL
concentration at 60 min (Sprague-Dawley, rat, plasma, Time 60, R3, read-out: Plasma level): 205 ng/mL
concentration at 240 min (Sprague-Dawley, rat, plasma, Time 240, Average, read-out: Plasma level): 4.2 ng/mL
concentration at 240 min (Sprague-Dawley, rat, plasma, Time 240, R1, read-out: Plasma level): 4.05 ng/mL
concentration at 240 min (Sprague-Dawley, rat, plasma, Time 240, R2, read-out: Plasma level): 3.35 ng/mL
concentration at 240 min (Sprague-Dawley, rat, plasma, Time 240, R3, read-out: Plasma level): 5.2 ng/mL
Cmax [4]: 635 ng/g
Tmax [4]: 15 min
Cmax (Sprague-Dawley, rat, IV 7.5 mg/kg, Plasma): 1400 ng/mL
SMILES: COc1ccccc1CN(C(=O)CC(C)C)[C@@H](C(=O)NC[C@H]1CCCO1)c1ccc(C)cc1 [Compound 8 (R,R), 3-methyl-N-(2-methoxybenzyl)-N-{[(1R)-1-(4-methylphenyl)]-2-oxo-2-[(2R)-(tetrahydrofuran-2-ylmethyl)amino]ethyl}butanamide]
